What all share (format): cell-based
The subject of series [1] is human keratinocytes. Kind of series: Cornified envelope (CE) formation, marker of terminal differentiation of keratinocytes. The following applies: Homo sapiens, Keratinocyte, read-out: CE Levels. The protocol: (§1) Human keratinocytes, isolated from neonatal foreskin by trypsin treatment were grown in Dulbecco Modification Eagle (DME) Hams F12 (3:1) medium/5% fetal calf serum in the presence of mitomycin C treated 3T3 mouse fibroblasts for establishing dividing keratinocyte colonies. Cells were grown under the above condition until their second passage and kept frozen for future use. Frozen second passage keratinocytes were thawed and plated into the above medium and grown for five days. On day 5, when the cells were 70-80% confluent, they were trypsinized and plated in the serum-free medium for the various experiments.
During the process of terminal differentiation in the epidermis, a 15 nm thick layer of protein, known as the cornified envelope (CE)is formed on the inner surface of the cell periphery. The CE is composed of numerous distinct proteins which have been cross-linked together by the formation of N ^ε -(-γ-glutamyl) lysine isodipeptide bonds catalyzed by the action of at least two different transglutaminases expressed in the epidermis. Transglutaminase (TG-1) is expressed in abundance in the differentiated layers of the epidermis, especially the granular layer, but is absent in the undifferentiated basal epidermis. Thus, TG-1 is a useful marker of epidermal keratinocyte differentiation with high TG-1 levels indicating a more differentiated state. An ELISA based TG-1 assay, using a TG-1 antibody, was used to assess the state of differentiation of the cultured keratinocytes in the examples that follow.
Proper skin conditioning require enhanced proliferation and differentiation of epidermal keratinocytes. The different citrate esters were tested on their effect on cornified envelope (CE) formation, a marker of terminal differentiation of keratinocytes. Citrate esters were tested at 1 mM levels in medium containing 0.15 mM Ca. Levels are expressed as % of control ±SD. The CE formation for the control was 54.48 ±31.8 cpm/μg cell protein.

For series [2], the system named is human keratinocytes. Kind of series: cells. The following applies: Keratinocyte, five days, choline-free medium, ±SD, * statistically significant, read-out: Protein. The protocol:
as §1
(§2) 4. The medium was aspirated, and the wells washed with 1 ml phosphate-buffered saline. The DNA and proteins of the cells in the plate were then precipitated by adding 1 ml of ice-cold 10% trichloroacetic acid (TCA). The plates were left on ice for 30 minutes to complete the precipitation process. TCA was then aspirated and each well was then washed four times with 5% TCA. The plates were then dried on a filter pad and the cells in the wells were dissolved in 0.5 ml of 0.1N sodium hydroxide. The sodium hydroxide was then neutralized using 0.1N hydrochloric acid and the solution (1 ml total volume) was then transferred to a scintillation vial. 50 μl samples from each vial were used for protein assay using BCA protein assay reagent obtained from Pierce Chemical Company. 8 ml of a scintillation fluid (Ecolume) was added to the rest of the solution in the vial, and the vials were counted in a scintillation counter to determine the amount of radioactivity in each vial. The DNA synthesis rate was then calculated as cpm ^3 H thymidine incorporated into total cellular DNA/microgram of cell protein for each individual well. Mean and standard deviation for each group was also calculated.
(§3) The aged epidermis may be choline deficient due to the decreased capillary circulation to the skin. To simulate the choline-deficient in vitro system, keratinocytes were plated in complete medium and 48 hours later switched to choline-free medium. The cells were then grown for five days in the choline-free medium with or without addition of different amounts of choline or TCC. To determine whether TCC can provide choline for keratinocyte proliferation under these conditions, on day 5, the amount of ^3 H thymidine incorporation into DNA was determined as in the previous experiment. The protein content of the wells were also quantitated. Both these parameters were expressed as % of control ±SD.

Series [3] deals with human keratinocytes. The series can be described thus: DNA synthesis (3H thymidine incorporation) in keratinocytes in choline-free medium. Particulars: Keratinocyte. The protocol: as §1
The incorporation of ^3 H-thymidine by cultured keratinocytes was used as an assay of keratinocyte proliferation. Thymidine is one of four deoxynucleosides which are the monomeric units of DNA, the universal library of genetic information in the animal kingdom. Prior to cell division of a somatic cell such as a keratinocyte, the complete genome of the cell undergoing cell division is replicated. This involves large scale DNA synthesis by the cell and enables both daughter cells to receive identical copies of the genetic material. When ^3 H-thymidine is included in the culture media of keratinocytes which are synthesizing DNA in preparation for cell division then the labelled nucleoside is incorporated into the newly synthesized DNA. The extent of incorporation of ^3 H-thymidine into a population of cells is proportional to the rate of DNA synthesis by this population of cells and therefore an indication of their cellular proliferation.
as §2, §3

A short description of series [4]: Signs of cytotoxicity in / tolerance by keratinocytes. Particulars: human, 24 hours exposure, read-out: concentration at which cells showed signs of cytotoxicity. The protocol: Effects of 24 hours exposure to 0.1 μM to 10 mM of citric acid, choline or the different citrate esters on keratinocyte DNA synthesis are shown in table 1. Rate of DNA synthesis calculated as cpm ^3 H thymidine incorporated into cellular DNA/μg of cell protein is expressed as % of control (no addition controls) ±SD. The actual amount of cpm/μg protein of the control is 1103 ±88.

[5] abbreviates: 1 mM, medium containing 0.15 mM Ca, ±SD, * statistically significant effects.

With `C[N+](C)(C)CCO` [Choline, choline], the activity at 1000 µM in series [1] stood at 135 ± 23.6%; in series [2] (120 h, 1000 μM), 229 ± 29%; in series [3] (120 h, 1000 μM, five days, choline-free medium, ±SD, * statistically significant), 297 ± 11.3%. The activity at 1 µM in series [2] (120 h, 1 μM) was determined as 197 ± 21.8%; in series [3] (120 h, 1 μM, five days, choline-free medium, ±SD, * statistically significant), 261 ± 5.6%. Moreover, the activity at 10 µM in series [2] (120 h, 10 μM) worked out at 264 ± 50%; in series [3] (120 h, 10 μM, five days, choline-free medium, ±SD, * statistically significant) it was 313 ± 11.4%. The activity at 100 µM was determined as 276 ± 52% in series [2] (120 h, 100 μM) and 315 ± 29.3% in series [3] (120 h, 100 μM, five days, choline-free medium, ±SD, * statistically significant). Also, the activity at 10000 µM is 209 ± 13.7% in series [2] (120 h, 10,000 μM) and 270 ± 11.2% in series [3] (120 h, 10,000 μM, five days, choline-free medium, ±SD, * statistically significant). Moreover, the minimal effective concentration in series [3] (read-out: lowest concentration that increased proliferation (both DNA synthesis and protein content)) was 1 µM.

`CCCCOC(=O)CC(O)(CC(=O)OCCCC)C(=O)OCCCC` [TBC, tributylcitrate]: the activity at 1000 µM in series [1] (setting [5]) stood at 23.6 ± 2.1%. Further, the MCC at 24 h in series [4] is not below 1 mM.

With `CCOC(=O)CC(O)(CC(=O)OCC)C(=O)OCC` [TEC, triethylcitrate], in series [1] (setting [5]), the activity at 1000 µM was determined as 18.6 ± 4.2%. The MCC at 24 h in series [4] is not below 1 mM.

The values are drawn from patent publication US5571518A, “Cosmetic compositions containing tricholine citrate” (priority 1995, dated 1996).
